In patent US20160222014A1, “COMPOUNDS FOR REGULATING FAK AND/OR SRC PATHWAYS” (ASANA BIOSCIENCES, LLC, priority 2013, published 2016):

Assays:
Format in all cases: biochemical
Recombinant Src enzyme = molecular target: T1, Recombinant Src enzyme (Homo sapiens, UniProt P12931); assay: Src HTRF assay
T1 construct: purchased Millipore 14-326; host or cells: Sf21 insect cells
Experimental: Enzyme assay buffer, supplements, and compounds were prepared as described in the FAK HTRF assay.
Recombinant Src enzyme expressed in Sf21 insect cells was obtained (Millipore, Cat No. 14-326, Lot # D8CN006U-K). A 35 μM stock was used at a final concentration of 5 nM in the assay.
Tyk2 synthetic peptide-Biotinylated-N-terminal tag-[…]
A custom made substrate, a Tyk2 synthetic peptide, biotinylated with an N-terminal tag was obtained (Biopeptide and Sigma, Cat. No. 14918001 VC80021). A 100 μM stock was used at a final concentration of 0.5 μM in the assay.
A 10 mM stock in 100 μL enzyme assay buffer pH7.4 was prepared freshly and used at a final concentration of 10 μM in the assay.
Dasatinib (Bristol-Myers Squibb)
The assay procedure was the same as discussed above.

recombinant human FAK1 = molecular target: T2, recombinant human FAK1 (Homo sapiens, UniProt Q05397); assay: FAK1 HTRF assay
T2 construct: fused on or other part: N-terminal 6xHis tag
Outline: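 IC50 values derive from HTRF % inhibition (ratio 665/620 nm, Eu–anti-phosphotyrosine 0.1 nM, SA-APC 12 nM). The kinase step ran 45 min at room temperature, pairing 10 nM His-FAK1(692–end) from baculovirus with 0.5 μM gastrin Tyr87 biotin-peptide and a reagent at 10 μM final, pH 7.4. Compound dilutions began at 10 μM.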

AURKB (Aurora B) enzyme = molecular target: T3, AURKB (Aurora B) enzyme (Homo sapiens, UniProt Q96GD4); assay: Aurora B HTRF assay; details: read-out: AuroraB IC50
T3 construct: purchased Invitrogen PVR 130
Experimental: AURKB (Aurora B) enzyme was obtained (Invitrogen, Cat No. PVR 130, Lot No. 857013J). A 8.64 μM stock was used at a final concentration 5 nM in the assay.
Lance@Ultera Ulight-PLK (Ser137) peptide substrate
Peptide substrate was obtained from Perkin Elmer (Lot#1629793, TRF0110-M). A 5 μM stock was used at a final concentration of 50 nM in the assay.
10 mM stock prepared freshly as above, used at a final concentration of 30 μM in assay.
The plate was covered with aluminum foil, put on a shaker and incubated 1 h at rt.
Reference: Pfizer aurora inhibitor PF-03814735 was procured from Selleckchem: Cat# S2725
Using stock Lance detection buffer, 1× Lance detection buffer was prepared. • 1. 10× lance detection buffer was diluted to 1×, mixed well and 100 μL was removed, and was used to substitute with antibody and EDTA (for a total of 2200 μL). • 2. 88 μL of […] EDTA was added from 500 mM stock. • 3. 14 μL Europium labeled antibody (LANCE@ Ultra EU-Anti-P-PLK(Ser 137), TRF0203-D, Lot No. 1630351, Perkin Elmer) was added from 625 nM stock; required concentration was 2 nM in the assay. • 4. The buffer well was mixed and 20 μL was transferred to the each well in the assay plate. • 5. The solutions were incubated for 1 h at rt. • 6. The plate was read using MET-HTRF® protocol using Pherastar equipment.

T2 sequence (Q05397 422-680 limits assumed): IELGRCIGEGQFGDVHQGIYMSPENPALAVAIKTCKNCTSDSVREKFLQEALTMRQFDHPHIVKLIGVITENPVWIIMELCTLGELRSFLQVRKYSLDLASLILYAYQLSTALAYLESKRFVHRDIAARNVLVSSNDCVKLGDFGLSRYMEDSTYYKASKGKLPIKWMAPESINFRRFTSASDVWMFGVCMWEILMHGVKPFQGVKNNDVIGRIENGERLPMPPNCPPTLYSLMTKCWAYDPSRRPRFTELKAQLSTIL
T3 sequence (Q96GD4 whole entry): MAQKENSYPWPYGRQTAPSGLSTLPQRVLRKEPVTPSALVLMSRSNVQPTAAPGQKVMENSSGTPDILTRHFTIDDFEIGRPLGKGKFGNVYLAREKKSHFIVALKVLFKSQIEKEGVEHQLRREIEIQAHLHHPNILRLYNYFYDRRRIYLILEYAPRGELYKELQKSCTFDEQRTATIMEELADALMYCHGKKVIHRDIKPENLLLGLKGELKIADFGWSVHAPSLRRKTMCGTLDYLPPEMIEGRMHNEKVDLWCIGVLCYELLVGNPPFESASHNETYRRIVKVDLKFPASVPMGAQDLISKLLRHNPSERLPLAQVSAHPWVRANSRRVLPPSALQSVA
T1 sequence (P12931 whole entry): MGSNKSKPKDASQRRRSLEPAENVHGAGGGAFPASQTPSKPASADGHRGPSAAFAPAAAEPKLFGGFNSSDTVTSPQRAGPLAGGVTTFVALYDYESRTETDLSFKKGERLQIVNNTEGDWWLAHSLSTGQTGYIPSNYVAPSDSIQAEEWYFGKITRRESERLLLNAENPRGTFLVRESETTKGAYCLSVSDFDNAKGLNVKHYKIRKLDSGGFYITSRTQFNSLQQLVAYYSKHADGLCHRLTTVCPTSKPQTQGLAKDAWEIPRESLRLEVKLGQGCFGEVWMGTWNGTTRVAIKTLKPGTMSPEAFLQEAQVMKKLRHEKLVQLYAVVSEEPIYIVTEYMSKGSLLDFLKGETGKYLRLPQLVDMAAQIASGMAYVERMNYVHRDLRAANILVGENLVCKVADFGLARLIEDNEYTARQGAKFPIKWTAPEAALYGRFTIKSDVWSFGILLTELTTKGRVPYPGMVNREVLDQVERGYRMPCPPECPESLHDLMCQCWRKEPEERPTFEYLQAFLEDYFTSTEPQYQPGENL

| Structure (SMILES) | IC50 (Recombinant Src enzyme) | IC50 (recombinant human FAK1) | IC50 (AURKB (Aurora B) enzyme) |
| --- | --- | --- | --- |
| CC(=O)Nc1cccc(Nc2ncc3ccn(S(=O)(=O)c4ccc(C)cc4)c3n2)c1 [Example 39] | > 1000 nM | – | – |
| CC(=O)Nc1cccc(Nc2ncc3ccn(S(=O)(=O)c4cccc(OC(F)(F)F)c4)c3n2)c1 [Example 40] | > 1000 nM | – | – |
| O=C1CCc2cc(Nc3cc4c(ccn4S(=O)(=O)c4cccc(OC(F)(F)F)c4)cn3)ccc2N1 [Example 56] | > 1000 nM | – | – |
| CC(=O)Nc1ccc(Nc2cc3c(ccn3Cc3ccccc3OC(F)F)cn2)cc1 [Example 97] | > 1000 nM | – | – |
| CC(=O)Nc1cccc(Nc2cc3c(ccn3Cc3ccccc3OC(F)F)cn2)c1 [Example 98] | > 1000 nM | – | – |
| COc1ccccc1S(=O)(=O)n1ccc2cnc(Nc3cccc(NC(C)=O)c3)nc21 [Example 104] | > 1000 nM | – | – |
| CC(C)(O)C(=O)Nc1cccc(Nc2ncc3ccn(S(=O)(=O)c4ccccc4OC(F)(F)F)c3n2)c1 [Example 110] | > 1000 nM | – | – |
| O=S(=O)(c1ccccc1OC(F)(F)F)n1ccc2cnc(Nc3ccc(N4CCOCC4)cc3)nc21 [Example 112] | > 1000 nM | – | – |
| COc1ccccc1S(=O)(=O)n1ncc2cnc(Nc3ccc4c(c3)CCC(=O)N4)cc21 [Example 130] | > 1000 nM | – | – |
| COc1ccccc1S(=O)(=O)n1ncc2cnc(Nc3ccc4ncsc4c3)cc21 [Example 132] | > 1000 nM | – | – |
| CN(c1ncccc1Cn1ccc2cnc(Nc3ccncc3)nc21)S(C)(=O)=O [Example 138] | > 1000 nM | – | – |
| CN(c1cccc(Cn2ccc3cnc(Nc4ccc5c(c4)CCC(=O)N5)nc32)n1)S(C)(=O)=O [Example 141] | > 1000 nM | – | – |
| COc1ccccc1S(=O)(=O)n1ccc2cnc(Nc3cccnc3)nc21 [Example 143] | > 1000 nM | – | – |
| COc1ccccc1S(=O)(=O)n1ccc2cnc(Nc3ccncc3)nc21 [Example 144] | > 1000 nM | – | – |
| Cc1ccccc1Nc1ncc2ccn(Cc3cccnc3N(C)S(C)(=O)=O)c2n1 [Example 148] | > 1000 nM | – | – |
| CN(c1ncccc1Cn1ccc2cnc(Nc3ccccc3F)nc21)S(C)(=O)=O [Example 155] | > 1000 nM | – | – |
| CN(c1ncccc1Cn1ccc2cnc(Nc3c(F)cccc3F)nc21)S(C)(=O)=O [Example 167] | > 1000 nM | – | – |
| CN(c1ncccc1Cn1ccc2cnc(Nc3cccc(-c4nnn[nH]4)c3)nc21)S(C)(=O)=O [Example 188] | > 1000 nM | – | – |
| CC(=O)Nc1ccc(S(=O)(=O)n2ccc3cnc(Nc4ccc5c(c4)CCC(=O)N5)nc32)cc1 [Example 192] | > 1000 nM | – | – |
| O=C1CCc2cc(Nc3ncc4ccn(S(=O)(=O)c5ccc6ncsc6c5)c4n3)ccc2N1 [Example 226] | > 1000 nM | – | – |
| O=S(=O)(c1ccc2ncsc2c1)n1ccc2cnc(Nc3ccc(N4CCNCC4)cc3)nc21 [Example 234] | > 1000 nM | – | – |
| CN(c1ncccc1Cn1ncc2cnc(Nc3ccc(N4CCNCC4)cc3)nc21)S(C)(=O)=O [Example 241] | < 20 nM | – | – |
| O=C1Cc2cc(Nc3cc4c(cn3)cnn4S(=O)(=O)c3cccc4cccnc34)ccc2N1 [Example 354] | > 1000 nM | – | – |
| O=S(=O)(c1cccc2cccnc12)n1ccc2cnc(Nc3ccc(N4CCNCC4)cc3CO)cc21 [Example 361] | > 1000 nM | – | – |
| O=S(=O)(c1cccc2cccnc12)n1ccc2cnc(Nc3ccc(N4CCNCC4)cc3CO)nc21 [Example 363] | > 1000 nM | – | – |
| COc1cc(Nc2cc3c(ccn3Cc3cccnc3N(C)S(C)(=O)=O)cn2)ccc1N1CCNCC1 [Example 364] | > 1000 nM | – | – |
| COc1c(Nc2ncc3ccn(S(=O)(=O)c4cccc5cccnc45)c3n2)ccc(N2CCNCC2)c1F [Example 370] | > 1000 nM | – | – |

| Structure (SMILES) | IC50 (Recombinant Src enzyme) | IC50 (recombinant human FAK1) | IC50 (AURKB (Aurora B) enzyme) |
| --- | --- | --- | --- |
| O=C(Nc1ccc(Nc2cc3c(cn2)cnn3S(=O)(=O)c2cccc3cccnc23)cc1)C1CC1 [Example 375] | > 1000 nM | – | – |
| COc1cc(N2CCNCC2)ccc1Nc1cc2c(ccn2S(=O)(=O)c2cccc3ccc(C)nc23)cn1 [Example 382] | > 1000 nM | – | – |
| CN1CC2CC1CN2c1ccc(Nc2ncc3ccn(S(=O)(=O)c4cccc5cccnc45)c3n2)cc1 (stereo not shown) [Example 410] | – | < 20 nM | < 20 nM |
| N#Cc1ccccc1S(=O)(=O)n1ccc2cnc(Nc3ccc(N4CCN(CCO)CC4)cc3)cc21 [Example 413] | – | < 20 nM | < 20 nM |
| CN(c1ccccc1Cn1ccc2cnc(Nc3ccc(N4CCN(CCO)CC4)cc3)nc21)S(C)(=O)=O [Example 423] | – | < 20 nM | < 20 nM |
| COc1cc(Nc2ncc3ccn(S(=O)(=O)c4cccc5cccnc45)c3n2)ccc1N1CCN(C)CC1 [Example 427] | – | < 20 nM | < 20 nM |
| CN1CCN(c2ccc(Nc3ncc4ccn(Cc5ccccc5N(C)S(C)(=O)=O)c4n3)cc2)CC1 [Example 428] | – | < 20 nM | < 20 nM |
| COc1cc(Nc2ncc3ccn(S(=O)(=O)c4cccc5cccnc45)c3n2)ccc1N1CCN(CCO)CC1 [Example 431] | – | < 20 nM | < 20 nM |
| O=S(=O)(c1cccc2cccnc12)n1ccc2cnc(Nc3ccc(N4CCC(CO)CC4)cc3)nc21 [Example 440] | – | < 20 nM | < 20 nM |
| CN(C)C1CCN(c2ccc(Nc3ncc4ccn(S(=O)(=O)c5cccc6cccnc56)c4n3)cc2)CC1 [Example 462] | – | < 20 nM | < 20 nM |
| C[C@H]1CN(c2ccc(Nc3cc4c(ccn4S(=O)(=O)c4ccccc4C#N)cn3)cc2)CCN1 [Example 472] | – | < 20 nM | < 20 nM |
| C[C@H]1CNCCN1c1ccc(Nc2cc3c(ccn3S(=O)(=O)c3cccc4cccnc34)cn2)cc1 [Example 478] | – | < 20 nM | < 20 nM |
| C[C@@H]1CNCCN1c1ccc(Nc2cc3c(ccn3S(=O)(=O)c3cccc4cccnc34)cn2)cc1 [Example 480] | – | < 20 nM | < 20 nM |
| CN(C)C1CCN(c2ccc(Nc3cc4c(ccn4S(=O)(=O)c4ccccc4C#N)cn3)cc2)CC1 [Example 485] | – | < 20 nM | < 20 nM |
| C[C@@H]1CNCCN1c1ccc(Nc2ncc3ccn(S(=O)(=O)c4cccc5cccnc45)c3n2)cc1 [Example 490] | – | < 20 nM | < 20 nM |
| CC1(C)CN(S(=O)(=O)c2cccc3cccnc23)c2nc(Nc3ccc4c(c3)CCC(=O)N4)ncc21 [Example 545] | – | < 20 nM | < 20 nM |
| CS(=O)(=O)Nc1ccccc1Cn1ccc2cnc(Nc3ccc4c(c3)CCC(=O)N4)nc21 [Example 595] | – | < 20 nM | < 20 nM |
| CN(c1ccccc1Cn1ccc2cnc(Nc3ccc(N4CCNC(C)(C)C4)cc3)nc21)S(C)(=O)=O [Example 606] | – | < 20 nM | < 20 nM |
| CS(=O)(=O)Nc1ccccc1Cn1ccc2cnc(Nc3ccc4c(c3)OCC(=O)N4)nc21 [Example 618] | – | < 20 nM | < 20 nM |
| C[C@H](O)CN1CCN(c2ccc(Nc3ncc4ccn(Cc5ccccc5N(C)S(C)(=O)=O)c4n3)cc2)CC1 [Example 632] | – | < 20 nM | < 20 nM |
| CN(c1ccccc1Cn1ccc2cnc(Nc3ccc(N4CCN(CC(=O)O)CC4)cc3)nc21)S(C)(=O)=O [Example 662] | – | < 20 nM | < 20 nM |
| C[C@@H](O)CN1CCN(c2ccc(Nc3ncc4ccn(Cc5ccccc5N(C)S(C)(=O)=O)c4n3)cc2)CC1 [Example 665] | – | < 20 nM | < 20 nM |
| COc1ccc(N(C)S(C)(=O)=O)c(Cn2ccc3cnc(Nc4ccc(N5CCN[C@@H](C)C5)cc4)nc32)c1 [Example 675] | – | < 20 nM | < 20 nM |
| COc1ccc(N(C)S(C)(=O)=O)c(Cn2ccc3cnc(Nc4ccc5c(c4)CC(=O)N5)nc32)c1 [Example 691] | – | < 20 nM | < 20 nM |
| C[C@H](O)CN1CCN(c2ccc(Nc3ncc4ccn(Cc5ccccc5N(C)S(C)(=O)=O)c4n3)cc2)C[C@@H]1C [Example 695, N-(2-((2-((4-((S)-4-((S)-2-hydroxypropyl)-3-methylpiperazin-1-yl)phenyl)amino)-7H-pyrrolo[2,3-d]pyrimidin-7-yl)methyl)phenyl)-N-methylmethanesulfonamide] | – | < 20 nM | < 20 nM |
| CN1CCC(NC(=O)c2ccc(Nc3ncc4ccn(Cc5ccccc5N(C)S(C)(=O)=O)c4n3)cc2)CC1 [Example 777] | – | < 20 nM | < 20 nM |
| Cc1ccc(N(C)S(C)(=O)=O)c(Cn2ccc3cnc(Nc4ccc(N5CCC(N(C)C)CC5)c(C)c4)nc32)c1 [Example 780] | – | < 20 nM | < 20 nM |
